From patent US20230180804A1, “FLAVOR COMPOSITION, AND FOOD AND BEVERAGE” (TAKASAGO INTERNATIONAL CORPORATION, priority 2020, published 2023)

Experiments:
olfactory receptor OR9Q2 = target: T1, olfactory receptor OR9Q2 (Homo sapiens, UniProt Q8NGE9); assay: OR9Q2 response inhibitory effect for p-cresol, luciferase reporter gene assay; format: cell-based; conditions: p-cresol 100 µM mixed with various concentrations of compound; cells expressing OR9Q2; ratio of Fold Increase value (FIGS. 1 to 11)
T1 construct: 20 N-terminal amino acid residues of bovine rhodopsin (Rho tag); expressed in transfected cells; host or cells: HEK293T
T1 sequence (Q8NGE9 1-314): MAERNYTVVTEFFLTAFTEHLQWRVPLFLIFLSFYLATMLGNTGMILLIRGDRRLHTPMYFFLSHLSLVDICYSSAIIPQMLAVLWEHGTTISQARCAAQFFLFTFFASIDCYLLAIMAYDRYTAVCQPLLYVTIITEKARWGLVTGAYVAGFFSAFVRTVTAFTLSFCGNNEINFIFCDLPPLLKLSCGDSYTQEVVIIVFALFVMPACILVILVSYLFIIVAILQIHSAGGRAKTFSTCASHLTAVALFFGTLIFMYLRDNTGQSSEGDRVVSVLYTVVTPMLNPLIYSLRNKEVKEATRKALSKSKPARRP
Experimental: The human olfactory receptor gene was obtained by cloning from Human Genomic DNA: Female (Promega) by PCR method based on the sequence information registered in GenBank. The 20 N-terminal amino acid residues of bovine rhodopsin were incorporated into the pME18S vector, and the obtained human olfactory receptor gene was incorporated downstream thereof to obtain a human olfactory receptor gene expression vector.
In 10 µL of Opti-MEM I (gibco), 0.05 µg of human olfactory receptor gene expression vector, 0.01 µg of RTP1S vector, 0.01 µg firefly luciferase vector pGL4.29 (Promega) containing cAMP response element promoter, and 0.005 µg of Renilla luciferase vector pGL4.74 (Promega) containing thymidine kinase promoter were dissolved to prepare a gene solution (for one well). HEK293T cells were seeded at 100 µL each in a 96-well plate (Biocoat, Coming) at the number of cells reaching confluence after 24 hours, and a gene solution was added to each well by the lipofection method according to the usage of Lipofectamine 3000 to introduce genes into the cells, and the cells were cultured at 37° C. in a 5% carbon dioxide atmosphere for 24 hours.
After removing the culture medium, the resultant was prepared with CD293 (gibco) medium ([…] added) so as to have a concentration for measuring the aroma substance to be tested, 50 µL of which was added each and stimulated for 3 hours, and then luciferase activity was measured according to the method of using the Dual-Luciferase Reporter Assay System (Promega). The response intensity of the olfactory receptor polypeptide was expressed as a Fold Increase value obtained by dividing the luciferase activity produced by stimulating the aroma substance by the luciferase activity produced in the test system containing no aroma substance.
p-Cresol at 100 µM was mixed with various concentrations of 1-oxacycloheptadecan-7-en-2-one, 1-oxacycloheptadecan-8-en-2-one, isoambrettolide, pentalide, muscone, civetone, 8-2-decenolactone, cinnamic aldehyde, […], sclareolide, and ethyl maltol, and receptor responses were measured in cells expressing OR9Q2. The ratio of the Fold Increase value in the test in which each compound was mixed was calculated, where the Fold Increase value in the test in none of these compounds was mixed was set to 100. FIGS. 1 to 11 present the results.

[1] = Sensory evaluation of p-cresol odor masking in p-cresol-containing citrus-flavored beverage; conditions: for p-Cresol Odor Intensity: beverage with 50 ppb p-cresol, average score of 7 panelists, scale 0-4
Experimental: To 2 g of lemon flavor obtained by making lemon oil into an essence, purified water was added to adjust the total amount to 1000 ml. To this citrus-flavored beverage, p-cresol adjusted to a concentration of 1% by mass with 95% ethanol was added to 50 ppb in the citrus-flavored beverage. To this p-cresol-containing citrus-flavored beverage, 1-oxacycloheptadecan-7-en-2-one was added at the concentrations presented in Table 1 to confirm the p-cresol odor intensity (masking effect) and the influence on the citrus flavor of each sample.
For the test, seven skilled panelists were selected to perform sensory evaluation. The p-cresol odor intensity of the p-cresol-containing citrus-flavored beverage without added l-oxacycloheptadecan-7-en-2-one was determined as “Rating: 4,” and the p-cresol odor intensity of the p-cresol-free citrus-flavored beverage was determined as “Rating: 0,” and the p-cresol odor intensity (masking effect) of each sample was relatively evaluated according to the following evaluation criteria.
In addition, the influence of the citrus-flavored beverage on the citrus flavor was evaluated absolutely according to the following evaluation criteria for the presence or absence of off- flavor other than p-cresol odor and citrus flavor (Off-Flavor Intensity).
The results are as in Table 1, presenting the average score of the evaluation results for each panelist.

[2] = Sensory evaluation of p-cresol odor masking in p-cresol-containing citrus-flavored confectionery (tablet); conditions: for p-Cresol Odor Intensity: tablet with 200 ppb p-cresol, average score of 6 panelists, scale 0-4
Experimental: Lemon cold-pressed oil was added to the tablet having the composition presented in Table A at a concentration of 1 % by mass, and medium chain fatty acid triglycerides (MCT) was used to adjust p-cresol to a concentration of 0.1%, which was further added so as to reach 200 ppb in the citrus flavored confectionery. To this p-cresol-containing citrus-flavored confectionery, 1-oxacycloheptadecan-7-en-2-one was added at the concentrations presented in Table 12, and then tableting was performed to confirm the p-cresol odor intensity (masking effect) and the influence on the citrus flavor of each sample.
Six skilled panelists were selected to perform the same sensory evaluation as in Example 1. The results are as in Table 12, presenting the average score of the evaluation results for each panelist.

[3] = citrus-flavored beverage with 50 ppb p-cresol
[4] = citrus-flavored confectionery (tablet) with 200 ppb p-cresol

O=C1CCCCCCC/C=C\CCCCCCO1 [Isoambrettolide, isoambrettolide]
effect of suppressing the response of OR9Q2 to p-cresol (olfactory receptor OR9Q2): suppressing the response of OR9Q2 to p-cresol in a concentration-dependent manner | p-Cresol Odor Intensity ([1]; 0.01 ppt added): 3.7 points | p-Cresol Odor Intensity ([1]; 0.1 ppt added): 2.7 points | p-Cresol Odor Intensity ([1]; 1 ppb added): 1.3 points | p-Cresol Odor Intensity ([1]; 1 ppt added): 2.4 points | p-Cresol Odor Intensity ([1]; 10 ppb added): 1.3 points | p-Cresol Odor Intensity ([1]; 10 ppt added): 2.1 points | p-Cresol Odor Intensity ([1]; 100 ppb added): 0.9 points | p-Cresol Odor Intensity ([1]; 100 ppt added): 1.6 points | concentration at which the compound masks the p-cresol odor and does not affect the citrus flavor, lower limit [1, 3]: ≥ 0.1 ppt | concentration at which the compound masks the p-cresol odor and does not affect the citrus flavor, upper limit [1, 3]: ≤ 1 ppb | p-Cresol Odor Intensity ([2]; 4 ppb added): 2.5 points | p-Cresol Odor Intensity ([2]; 40 ppb added): 1.8 points | p-Cresol Odor Intensity ([2]; 40 ppt added): 3.0 points | p-Cresol Odor Intensity ([2]; 400 ppb added): 1.5 points | p-Cresol Odor Intensity ([2]; 400 ppt added): 2.7 points | concentration at which the compound masks the p-cresol odor and does not affect the citrus flavor, lower limit [2, 4]: ≥ 400 ppt | concentration at which the compound masks the p-cresol odor and does not affect the citrus flavor, upper limit [2, 4]: ≤ 400 ppb
